In US20260103453A1, “NOVEL PYRIMIDINE DERIVATIVE AS BRUTON'S TYROSINE KINASE INHIBITOR” (HANMI PHARM. CO., LTD., priority 2022, published 2026):

Target: BTK enzyme (Homo sapiens, UniProt Q06187)
Assay: Z'-LYTE kinase assay, BTK enzyme activity inhibition (ThermoFisher SelectScreen)
Assay type: biochemical
Conditions: 60 minutes reaction at room temperature, compound 1,000 nM to 0.32 nM
Experimental: To do this, the SelectScreen profiling service was requested to the ThermoFisher company to proceed the Z′-LYTE kinase assay. The simple test method can be summarized as follows.
The compounds prepared in Examples above were each dissolved in DMSO to prepare a 10 mM solution, which was then delivered to the ThermoFisher Scientific company. According to the protocol provided by the ThermoFisher Scientific company, the solution of each compound was diluted in 100% DMSO to a have a concentration of 1,000 nM to 0.32 nM (dilution factor of 1/5). Next, the BTK enzyme was diluted in a kinase buffer (50 mM HEPES (PH 7.5), 10 mM MgCl2, 1 mM EGTA, 0.01% BRIJ-35) to a concentration of up to 10 ng/assay. The test was performed in a low volume 384-well plate (low volume NBS, black 384-well plate). First, 100 nL of the diluted compound solution was added to a sample, and then 2.4 μL of buffer, 5 μL of mixed solution of peptide substrate and kinase at twice (2×) the concentration listed in the protocol, and 2.5 μL of 140 μm ATP solution were added thereto, followed by stirring for 30 seconds. Then, it was allowed for a reaction at room temperature for 60 minutes. Afterwards, 5 μL of a color developing solution was added thereto and stirred for 30 seconds, and fluorescence of the peptide substrate was reacted for 60 minutes. After completion of the reaction, each fluorescence value (400 nm excitation filter, 445/520 nm emission filter) was measured by using a fluorescence plate reader.

Chain of BTK enzyme (Q06187 whole entry): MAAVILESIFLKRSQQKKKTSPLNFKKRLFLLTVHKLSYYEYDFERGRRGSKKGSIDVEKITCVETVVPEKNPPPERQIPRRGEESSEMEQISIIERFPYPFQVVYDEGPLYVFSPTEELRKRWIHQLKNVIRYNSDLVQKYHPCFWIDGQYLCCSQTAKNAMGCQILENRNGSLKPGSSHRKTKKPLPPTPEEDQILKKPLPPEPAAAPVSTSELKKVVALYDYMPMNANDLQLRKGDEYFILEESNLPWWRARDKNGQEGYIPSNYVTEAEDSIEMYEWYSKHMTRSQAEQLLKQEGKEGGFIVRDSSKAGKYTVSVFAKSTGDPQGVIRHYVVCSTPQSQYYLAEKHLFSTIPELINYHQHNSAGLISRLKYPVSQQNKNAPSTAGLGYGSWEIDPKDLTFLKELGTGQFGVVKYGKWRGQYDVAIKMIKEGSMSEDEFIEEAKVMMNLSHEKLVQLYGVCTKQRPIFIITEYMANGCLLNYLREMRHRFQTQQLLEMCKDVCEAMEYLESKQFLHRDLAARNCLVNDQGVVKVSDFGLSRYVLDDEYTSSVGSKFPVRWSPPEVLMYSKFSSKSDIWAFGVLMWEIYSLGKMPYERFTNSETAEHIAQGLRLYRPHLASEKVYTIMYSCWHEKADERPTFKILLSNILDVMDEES

| SMILES | IC50 |
| --- | --- |
| C=CC(=O)N(C)CC#Cc1c(N)ncnc1-c1cc(F)cc(N2CCc3cc(C4CC4)cc(F)c3C2=O)c1C [Example 4, N-(3-(4-amino-6-(3-(6-cyclopropyl-8-fluoro-1-oxo-3,4-dihydroisoquinolin-2(1H)-yl)-5-fluoro-2-methylphenyl)pyrimidin-5-yl)prop-2-yn-1-yl)-N-methylacrylamide] | 5.3 nM |
| C=CC(=O)N(C)CC#Cc1c(N)ncnc1-c1cc(C)cc(-n2ccc3cc(C4CC4)cc(F)c3c2=O)c1C [Example 8, N-(3-(4-amino-6-(3-(6-cyclopropyl-8-fluoro-1-oxoisoquinolin-2(1H)-yl)-2,5-dimethylphenyl)pyrimidin-5-yl)prop-2-yn-1-yl)-N-methylacrylamide] | 3.4 nM |
| C=CC(=O)N(C)CC#Cc1c(N)ncnc1-c1cc(F)cc(-n2ncc3cc(C4CC4)ccc3c2=O)c1C [Example 11, N-(3-(4-amino-6-(3-(6-cyclopropyl-1-oxophthalazin-2(1H)-yl)-5-fluoro-2-methylphenyl)pyrimidin-5-yl)prop-2-yn-1-yl)-N-methylacrylamide] | 10 nM |
| C=CC(=O)N(C)CC#Cc1c(N)ncnc1-c1cc(F)cc(-n2ccc3cc(C4CC4)cc(F)c3c2=O)c1 [Example 5, N-(3-(4-amino-6-(3-(6-cyclo-8-fluoro-1-oxoisoquinolin-2(1H)-yl)-5-fluorophenyl)pyrimidin-5-yl)prop-2-yn-1-yl)-N-methylacrylamide] | 6 nM |
| C=CC(=O)NCC#Cc1c(N)ncnc1-c1cc(F)cc(-n2ccc3cc(C4CC4)cc(F)c3c2=O)c1C [Example 9, N-(3-(4-amino-6-(3-(6-cyclopropyl-8-fluoro-1-oxoisoquinolin-2(1H)-yl)-5-fluoro-2-methylphenyl)pyrimidin-5-yl)prop-2-yn-1-yl)acrylamide] | 34 nM |
| C=CC(=O)N(C)CC#Cc1c(N)ncnc1-c1cc(F)cc(-n2ncc3cc(C(C)(C)C)cc(F)c3c2=O)c1C [Example 13] | 44 nM |
| C=CC(=O)N(C)CC#Cc1c(N)ncnc1-c1cc(F)cc(-n2ncc3cc(C4CC4)cc(F)c3c2=O)c1C [Example 12, N-(3-(4-amino-6-(3-(6-cyclopropyl-8-fluoro-1-oxophthalazin-2(1H)-yl)-5-fluoro-2-methylphenyl)pyrimidin-6-yl)prop-2-yn-1-yl)-N-methylacrylamide] | 4.9 nM |
| C=CC(=O)N(C)CC#Cc1c(N)ncnc1-c1cc(F)cc(N2CCc3cc(C4CC4)cc(F)c3C2=O)c1 [Example 3, N-(3-(4-amino-6-(3-(6-cyclopropyl-8-fluoro-1-oxo-3,4-dihydroisoquinolin-2(1H)-yl)-5-fluorophenyl)pyrimidin-5-yl)prop-2-yn-1-yl)-N-methylacrylamide] | 3.8 nM |
| C=CC(=O)N(C)CC#Cc1c(N)ncnc1-c1cc(F)cc(-n2ccc3cc(C4CC4)cc(F)c3c2=O)c1C [Example 6, N-(3-(4-amino-6-(3-(6-cyclopropyl-8-fluoro-1-oxoisoquinolin-2(1H)-yl)-5-fluoro-2-methylphenyl)pyrimidin-5-yl)prop-2-yn-1-yl)-N-methylacrylamide] | 3 nM |
| C=CC(=O)N(C)CC#Cc1c(N)ncnc1-c1cc(F)cc(NC(=O)c2ccc(C(C)C)cc2F)c1C [Example 1] | 1.7 nM |
| C=CC(=O)N(C)CC#Cc1c(N)ncnc1-c1cc(F)cc(NC(=O)c2ccc(C3CC3)cc2F)c1C [Example 2] | 1.5 nM |
| C=CC(=O)N(C)CC#Cc1c(N)ncnc1-c1cc(F)cc(-n2ncc3cc(C(C)(C)C)cc(F)c3c2=O)c1 [Example 10, N-(3-(4-amino-6-(3-(6-(tert-butyl)-8-fluoro-1-oxophthalazin-2-(1H)-yl)-5-fluorophenyl)pyrimidin-5-yl)prop-2-yn-1-yl)-N-methylacrylamide] | 2.3 nM |
| C=CC(=O)N(C)CC#Cc1c(N)ncnc1-c1cc(F)cc(-n2ccc3cc(C4CC4)cc(F)c3c2=O)c1F [Example 7, N-(3-(4-amino-6-(3-(6-cyclopropyl-8-fluoro-1-oxoisoquinolin-2(1H)-yl)-2,5-difluorophenyl)pyrimidin-5-yl)prop-2-yn-1-yl)-N-methylacrylamide] | 20 nM |

Results, then the molecule that gave them:

| IC50 | SMILES |
| --- | --- |
| 16 nM | C=C(Cl)C(=O)N1CCC[C@H]1C#Cc1c(N)ncnc1-c1cc(F)cc(-n2ccc3cc(C4CC4)cc(F)c3c2=O)c1C [Example 20, (S)-2-(3-(6-amino-5-((1-(2-chloroacryloyl)pyrrolidin-2-yl)ethynyl)pyrimidin-4-yl)-5-fluoro-2-methylphenyl)-6-cyclopropyl-8-fluoroisoquinolin-1(2H)-one] |
| 8.7 nM | C=CC(=O)N1CCCC[C@H]1C#Cc1c(N)ncnc1-c1cc(F)cc(-n2ccc3cc(C4CC4)cc(F)c3c2=O)c1C [Example 23] |
| 9.7 nM | C=CC(=O)N1CCC[C@H]1C#Cc1c(N)ncnc1-c1cc(F)cc(-n2ccc3cc(C(C)C)cc(F)c3c2=O)c1C [Example 18, (S)-2-(3-(5-((1-acryloylpyrrolidin-2-yl)ethynyl)-6-aminopyrimidin-4-yl)-6-fluoro-2-methylphenyl)-8-fluoro-6-isoquinolin-1-(2H)-one] |
| 29 nM | C=CC(=O)N1CCC[C@@H]1C#Cc1c(N)ncnc1-c1cc(F)cc(-n2ccc3cc(C4CC4)cc(F)c3c2=O)c1C [Example 16, (R)-2-(3-(5-((1-acryloylpyrrolidin-2-yl)ethynyl)-6-aminopyrimidin-4-yl)-5-fluoro-2-methylphenyl)-6-cyclopropyl-8-fluoroisoquinolin-1-(2H)-one] |
| 4.1 nM | C=CC(=O)N1CCC[C@H]1C#Cc1c(N)ncnc1-c1cc(F)cc(-n2ccc3cc(C4CC4)cc(F)c3c2=O)c1C [Example 17, (S)-2-(3-(5-((1-acryloylpyrrolidin-2-yl)ethynyl)-6-aminopyrimidin-4-yl)-6-fluoro-2-methylphenyl)-6-cyclopropyl-8-fluoroisoquinolin-1-(2H)-one] |
| 34 nM | C=CC(=O)N(C)CC#Cc1c(N)ncnc1-c1cc(F)cc(-n2cnc3cc(C4CC4)cc(F)c3c2=O)c1 [Example 15, N-(3-(4-amino-6-(3-(7-cyclopropyl-5-fluoro-4-oxoquinazolin-3(4H)-yl)-5-fluorophenyl)pyrimidin-5-yl)prop-2-yn-1-yl)-N-methylacrylamide] |
| 24 nM | C=CC(=O)N(C)CC#Cc1c(N)ncnc1-c1cc(F)cc(-n2ncc3cc(C(C)(C)C)ccc3c2=O)c1 [Example 14] |
| 201 nM | C=C(F)C(=O)N1CCC[C@H]1C#Cc1c(N)ncnc1-c1cc(F)cc(-n2ccc3cc(C4CC4)cc(F)c3c2=O)c1C [Example 19, (S)-2-(3-(6-amino-5-((1-(2-fluoroacryloyl)pyrrolidin-2-yl)ethynyl)pyrimidin-4-yl)-5-fluoro-2-methylphenyl)-6-cyclopropyl-8-fluoroisoquinolin-1(2H)-one] |
| 5.7 nM | C=CC(=O)N1CCCCC1C#Cc1c(N)ncnc1-c1cc(F)cc(-n2ccc3cc(C4CC4)cc(F)c3c2=O)c1C (stereo not shown) [Example 22, 2-(3-(5-((1-acryloylpiperidin-2-yl)ethynyl)-6-aminopyrimidin-4-yl)-5-fluoro-2-methylphenyl)-6-cyclopropyl-8-isoquinolin-1(2H)-one] |
